# Results published in patent US20260151457A1, “Peptides and Fragments for Treating Diabetes and Associated Metabolic Diseases” (Betavive Ltd., priority 2024, published 2026).
# Where no end group is shown, it is not given here.
# Tests used:
# mice = assay: Blood glucose concentration kinetics of IGF-2 vs. insulin in a glucose tolerance test; format: in vivo
# Description: IGF-2 therefore provides an effect that mimics insulin within the body, and that effect is referred to herein as an “insulinomimetic” effect. […] More specifically, when 1 unit of insulin per kg was administered, the recovery in glucose levels began after two hours. But when 800 μg/kg of IGF-2 was administered, the recovery in glucose levels began after six hours. […] In this example, administering IGF-2 can provide better results than administering insulin with respect to blood glucose levels, even when only a single dose was used. Without being bound by this theory, it is possible that the IGF-2 combines with a number of binding proteins in the blood and its active free form is then released slowly from the complex.
# Human pancreatic islets = assay: Peptides efficacy on human pancreatic islets (IHC, digital quantitative pathological analysis); format: cell-based
# Description: Human pancreatic islets, obtained from Prodo Labs, were cultured in Prodo Labs PIM(S) media and maintained at 37° C. with 5% CO2 to ensure optimal viability. The islets were treated with IGF-2 (500 nM) and Peptide-20 (1000 nM) for five days under continuous exposure. After treatment, islets were collected and fixed in 4% paraformaldehyde (PFA) to preserve cellular and structural integrity. The samples were then processed for formalin-fixed paraffin-embedded (FFPE) histology. Sectioned islets were stained using immunohistochemistry (IHC) with specific markers to assess islet integrity, β-cell function, and proliferation. Microscopic Digital Quantitative Pathological Analysis provided critical insights into the effects of IGF-2 and Peptide-20 on islet structure and function. […] These findings establish Peptide-20 as a strong candidate for novel diabetes therapies aimed at restoring islet function and reversing β-cell loss. […] Their ability to enhance β-cell survival and proliferation positions them as strong candidates for the development of novel regenerative therapies, paving the way for innovative drug development aimed at reversing diabetes and restoring endogenous insulin production.
# db/db mice = assay: Peptide efficacy on type 2 diabetes (db/db mice): pancreas H&E and IHC; format: in vivo
# Description: Male db/db mice (BKS.Cg-Dock7m+/+Leprdb/J) were administered Peptide 16 and Peptide 20 via intraperitoneal injection once daily for 35 consecutive days. Peptide 16 was administered at a dose of 5.5 mg/kg, while Peptide 20 was administered at 3.9 mg/kg. The control group received saline. Throughout the treatment period, mice were monitored for body weight and behavioral changes. At the end of the study, mice were sacrificed, and blood samples were collected for C-peptide level measurement. The pancreas was harvested for pathological analysis, including hematoxylin and eosin (H&E) staining and immunohistochemistry (IHC). Results appear in FIG. 37. All pancreatic tissue sections were stained with hematoxylin and eosin (H&E). […] Results appear in FIG. 38.
# STZ-treated mouse islets [1] = assay: Insulin secretion from STZ-treated mouse islets; format: cell-based; details: islets treated with 2.5 mM STZ; IGF-2 50 nM and 500 nM, GLP-1 100 nM and 1000 nM; 48 hours
# Description: Mouse islet cells were treated with 2.5 mM STZ and subsequently treated with either IGF-2 (FA) at 50 nM and 500 nM, or with GLP-1 at 100 nM and 1000 nM.
# β-MIN6 cells = assay: Insulin secretion of β-MIN6 cells following glucose induction; format: cell-based, mouse; details: IGF-2 5 nM, 20 nM, 80 nM, 1 week treatment
# From the text: β-MIN6 cells serve as an in vitro model of mouse pancreatic islets. β-MIN6 cells were used as an in vitro model to measure the effects of treatment with IGF-2.
# STZ-treated mouse islets [2] = assay: MTT viability of STZ-treated mouse islets; format: cell-based; details: increasing concentrations
# From the text: Yellow dye MTT is converted to a purple dye by mitochondrial reductase in viable cells. Therefore, the amount of purple dye present determined by measuring optical density of cells at 570 nm serves as a measurement of cell viability.
# [3] = Peptide-20 1000 nM for five days
substance,measurement,setting,value
insulin [reference compound],Glucose level after administration,mice; glucose tolerance test in mice,decreased
same,Time after which the recovery in glucose levels began,"mice; insulin 1 unit per kg, IGF-2 800 μg/kg, single dose",two
RSRGIVEECCFRICDLALLE [Peptide 20],"Pancreatic islet regeneration, integrity and function","Human pancreatic islets; IGF-2 500 nM, Peptide-20 1000 nM, five days",enhances human pancreatic islet regeneration and function
same,Islet area,Human pancreatic islets; [3],significant increase
same,Total insulin signal intensity,Human pancreatic islets; [3],significant increase
same,β-cell proliferation,Human pancreatic islets; [3],significant increase
same,Islets of Langerhans in the pancreas (IHC),db/db mice; Peptide 20 3.9 mg/kg i.p. once daily for 35 days,regenerating the islets of Langerhans
same,Islets of Langerhans in pancreatic tissue sections (H&E),"db/db mice; i.p. once daily for 35 days, Peptide 16 5.5 mg/kg, Peptide 20 3.9 mg/kg",regenerating the islets of Langerhans
"GLP-1 (HAEGTFTSDVSSYLEGQAAKEFIAWLVKGR; ends and bridges not checked; UniProt P01275 98-127, looked up) [a satiety hormone, comparator in vitro, reference compound]",Insulin secretion,STZ-treated mouse islets [1],did not significantly increase insulin secretion
same,Insulin secretion following glucose induction,β-MIN6 cells,does not increase insulin secretion
same,"Mouse islet viability (MTT, optical density at 570 nm)",STZ-treated mouse islets [2],did not significantly increase mouse islet viability
